Data taken from patent US20130005568A1, “SAFENED HERBICIDAL MIXTURES” (E.I. DU PONT DE NEMOURS AND COMPANY, priority 2011, published 2013).

Columns and labels:
[1] = tested on: Chickweed; assay: Test G: turf grass and weed postemergence plant response rating; type: in vivo, Stellaria media (L.) Vill.; settings: Chickweed, postemergence, greenhouse, three weeks, 0-100 scale
From the text: (§1) For all of the following biological tests, plant response ratings were based on a 0-100 scale where zero is growth equivalent to that of untreated plants (no plant response) and 100 represents no additional growth occurring after herbicide treatment.
(§2) Plants of the turf grass species: zoysia (Zoysia japonica Steud.), bermudagrass (Cynodon dactylon (L.) Pers.), tall fescue (Festuca arundinacea Shreib.), creeping bentgrass (Agrostis stoonoifera L.), perennial ryegrass (Lolium perenne L.) and hard fescue (Festuca species) were grown under greenhouse conditions for four months. Plants were clipped as needed to plant heights of 5-10 cm. Weeds typically found in turf: annual bluegrass (Poa annua L.), common chickweed (Stellaria media (L.) Vill.), large crabgrass (Digitaria sanguinales (L.) Scop.), dandelion (Taraxacum officinale Weber in Wiggers), goosegrass (Eleusine indica (L.) Gaertn.), henbit (Lamium amplexicaule L.), venice mallow (Hibiscus trionium L.) and purple nutsedge (Cyperus rotundus L.) were also grown under greenhouse conditions so that plants were 5-20 cm tall when they were treated. Herbicide mixtures were formulated, dissolved/dispersed in water containing 0.25% non-ionic surfactant, and sprayed postemergence to these turf grasses and weeds. Treated plants were grown under greenhouse conditions for three weeks before visual evaluations of plant responses were recorded.

[2] = tested on: Bermudagrass; assay: as above; type: in vivo, Cynodon dactylon (L.) Pers.; settings: Bermudagrass, postemergence, greenhouse, three weeks, 0-100 scale
From the text: as §1
Plants of the turf grass species: zoysia (Zoysia japonica Steud.), bermudagrass (Cynodon dactylon (L.) Pers.), tall fescue (Festuca arundinacea Shreib.), creeping bentgrass (Agrostis stoonoifera L.), perennial ryegrass (Lolium perenne L.) and hard fescue (Festuca species) were grown under greenhouse conditions for four months. Plants were clipped as needed to plant heights of 5-10 cm. […] Herbicide mixtures were formulated, dissolved/dispersed in water containing 0.25% non-ionic surfactant, and sprayed postemergence to these turf grasses and weeds. Treated plants were grown under greenhouse conditions for three weeks before visual evaluations of plant responses were recorded.

[3] = tested on: Large crabgrass; assay: as above; type: in vivo, Digitaria sanguinales (L.) Scop.; settings: Large crabgrass, postemergence, greenhouse, three weeks, 0-100 scale
From the text: as §1, §2

[4] = tested on: Annual bluegrass; assay: as above; type: in vivo, Poa annua L.; settings: Annual bluegrass, postemergence, greenhouse, three weeks, 0-100 scale
From the text: as §1, §2

[5] = tested on: Venice mallow; assay: as above; type: in vivo, Hibiscus trionium L.; settings: Venice mallow, postemergence, greenhouse, three weeks, 0-100 scale
From the text: as §1, §2

[6] = tested on: Goosegrass; assay: as above; type: in vivo, Eleusine indica (L.) Gaertn.; settings: Goosegrass, postemergence, greenhouse, three weeks, 0-100 scale
From the text: as §1, §2

[7] = tested on: Dandelion; assay: as above; type: in vivo, Taraxacum officinale Weber in Wiggers; settings: Dandelion, postemergence, greenhouse, three weeks, 0-100 scale
From the text: as §1, §2

[8] = tested on: Purple nutsedge; assay: as above; type: in vivo, Cyperus rotundus L.; settings: Purple nutsedge, postemergence, greenhouse, three weeks, 0-100 scale
From the text: as §1, §2

[9] = tested on: Henbit; assay: as above; type: in vivo, Lamium amplexicaule L.; settings: Henbit, postemergence, greenhouse, three weeks, 0-100 scale
From the text: as §1, §2

[10] = tested on: Pioneer 39K40 hybrid maize; assay: Test A: visual plant response rating, postemergence herbicide treatments alone and with Compound 1; type: in vivo, Zea mays L. spp. indentata Sturt.; settings: in vivo
Procedure: as §1
Pioneer 39K40 hybrid maize used in this test (and also Tests B and C) is particularly sensitive to herbicides that inhibit the acetohydroxy acid synthase enzyme. Herbicide mixtures were dissolved/dispersed in a non-phytotoxic liquid carrier and were sprayed postemergence to Pioneer 39K40 hybrid maize (Zea mays L. spp. indentata Sturt.) in the third collar growth stage (extended leaf height was 50-60 cm). Treated plants were grown under greenhouse conditions for two weeks before visual evaluations of plant responses were recorded.

[11] = herbicide 200 g ai/ha + Compound 1 125 g ai/ha
[12] = herbicide 80 g ai/ha + Compound 1 125 g ai/ha

Nc1nc(C2CC2)nc(C(=O)[O-])c1Cl.[K+] [Aminocyclopyrachlor-potassium, aminocyclopyrachlor]
Observed Response, Herbicide mixture with Compound 1 [1, 11]: 100
Observed Response, Herbicide alone ([1]; herbicide 200 g ai/ha): 100
Observed Response, Herbicide mixture with Compound 1 [2, 11]: 0
Observed Response, Herbicide alone ([2]; herbicide 200 g ai/ha): 20
Observed Response, Herbicide mixture with Compound 1 [3, 11]: 70
Observed Response, Herbicide alone ([3]; herbicide 200 g ai/ha): 80
Observed Response, Herbicide mixture with Compound 1 [4, 11]: 0
Observed Response, Herbicide alone ([4]; herbicide 200 g ai/ha): 20
Observed Response, Herbicide mixture with Compound 1 [5, 11]: 98
Observed Response, Herbicide alone ([5]; herbicide 200 g ai/ha): 100
Observed Response, Herbicide mixture with Compound 1 [6, 11]: 0
Observed Response, Herbicide alone ([6]; herbicide 200 g ai/ha): 50
Observed Response, Herbicide mixture with Compound 1 [7, 11]: 100
Observed Response, Herbicide alone ([7]; herbicide 200 g ai/ha): 100
Observed Response, Herbicide mixture with Compound 1 [8, 11]: 40
Observed Response, Herbicide alone ([8]; herbicide 200 g ai/ha): 40
Observed Response, Herbicide mixture with Compound 1 [9, 11]: 100
Observed Response, Herbicide alone ([9]; herbicide 200 g ai/ha): 100

COC(=O)c1ccccc1S(=O)(=O)NC(=O)Nc1nc(C)nc(OC)n1 [Metsulfuron-methyl, metsulfuron-methyl]
Observed Response, Herbicide mixture with Compound 1 [1, 12]: 100
Observed Response, Herbicide alone ([1]; herbicide 80 g ai/ha): 100
Observed Response, Herbicide mixture with Compound 1 [3, 12]: 0
Observed Response, Herbicide alone ([3]; herbicide 80 g ai/ha): 60
Observed Response, Herbicide mixture with Compound 1 [4, 12]: 50
Observed Response, Herbicide alone ([4]; herbicide 80 g ai/ha): 80
Observed Response, Herbicide mixture with Compound 1 [5, 12]: 100
Observed Response, Herbicide alone ([5]; herbicide 80 g ai/ha): 100
Observed Response, Herbicide mixture with Compound 1 [6, 12]: 0
Observed Response, Herbicide alone ([6]; herbicide 80 g ai/ha): 50
Observed Response, Herbicide mixture with Compound 1 [7, 12]: 100
Observed Response, Herbicide alone ([7]; herbicide 80 g ai/ha): 100
Observed Response, Herbicide mixture with Compound 1 [8, 12]: 20
Observed Response, Herbicide alone ([8]; herbicide 80 g ai/ha): 60
Observed Response, Herbicide mixture with Compound 1 [9, 12]: 100
Observed Response, Herbicide alone ([9]; herbicide 80 g ai/ha): 100
Observed Response, Herbicide alone [10]: 99
